Toxic doses and inconclusive results are not listed. The calls were made as follows: active = survival T/C of 150% or more; inactive = T/C below 125% in these data.
Tested on: CD2F1 mice, L1210 leukemia ip, survival T/C
Experiment: NCI In Vivo Anticancer Drug Screen. Data for tumor model L1210 Leukemia (intraperitoneal) in CD2F1 (CDF1) mice
Settings: endpoint: mean survival time, higher = longer survival
Method in brief: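 Implant tumor; dose compound or vehicle; measure endpoint in both groups; report treated divided by control.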

Measured: T/C

Nc1c(Cl)cc(Cl)c(-c2c(Cl)cc(Cl)c(N)c2Cl)c1Cl
inactive: dose: 12.5 mg/kg/injection, schedule: Q01DX009 (ip), vehicle: other 100 % of control | dose: 25.0 mg/kg/injection, schedule: Q01DX009 (ip), vehicle: other 101 % of control | dose: 50.0 mg/kg/injection, schedule: Q01DX009 (ip), vehicle: other 101 % of control | dose: 100.0 mg/kg/injection, schedule: Q01DX009 (ip), vehicle: other 97 % of control | dose: 200.0 mg/kg/injection, schedule: Q01DX009 (ip), vehicle: other 94 % of control

COc1ccc(C(=O)CC(=O)NC(=O)c2ccc(OC)cc2)cc1
inactive: dose: 100.0 mg/kg/injection, schedule: Q01DX001 (ip), vehicle: other 96 % of control | dose: 200.0 mg/kg/injection, schedule: Q01DX001 (ip), vehicle: other 97 % of control | dose: 400.0 mg/kg/injection, schedule: Q01DX001 (ip), vehicle: other 96 % of control

CC(C)C(C(N)=O)C(N)=O
inactive: dose: 100.0 mg/kg/injection, schedule: Q04DX002 (ip), vehicle: saline with Tween-80 100 % of control | dose: 200.0 mg/kg/injection, schedule: Q04DX002 (ip), vehicle: saline with Tween-80 100 % of control

O=C1NC(=O)C2(CCN(Cc3ccccc3)CC2)C(=O)N1
inactive: dose: 75.0 mg/kg/injection, schedule: Q01DX001 (ip), vehicle: saline 96 % of control | dose: 150.0 mg/kg/injection, schedule: Q01DX001 (ip), vehicle: saline 98 % of control | dose: 300.0 mg/kg/injection, schedule: Q01DX001 (ip), vehicle: saline 96 % of control

CC(=O)[O][Hg][c]1cc(-c2ccc(N=Nc3c(S(=O)(=O)O)cc4cccc(N)c4c3O)cc2)ccc1N=Nc1c(S(=O)(=O)O)cc2cccc(N)c2c1O
inactive: dose: 6.25 mg/kg/injection, schedule: Q04DX003 (ip), vehicle: saline with Tween-80 98 % of control | dose: 12.5 mg/kg/injection, schedule: Q04DX003 (ip), vehicle: saline with Tween-80 96 % of control | dose: 25.0 mg/kg/injection, schedule: Q04DX003 (ip), vehicle: saline with Tween-80 104 % of control

O=C(/C=C(\NC1CCCCC1)C(=O)c1ccccc1)c1ccccc1
inactive: dose: 100.0 mg/kg/injection, schedule: Q01DX009 (ip), vehicle: saline with Tween-80 87 % of control | dose: 200.0 mg/kg/injection, schedule: Q01DX009 (ip), vehicle: saline with Tween-80 98 % of control | dose: 200.0 mg/kg/injection, schedule: Q04DX003 (ip), vehicle: saline with Tween-80 86 % of control | dose: 400.0 mg/kg/injection, schedule: Q01DX009 (ip), vehicle: saline with Tween-80 97 % of control | dose: 400.0 mg/kg/injection, schedule: Q04DX003 (ip), vehicle: saline with Tween-80 86 % of control

O=C1CC(c2ccccc2)CO1 (stereo not given)
inactive: dose: 100.0 mg/kg/injection, schedule: Q01DX001 (ip), vehicle: saline 106 % of control | dose: 200.0 mg/kg/injection, schedule: Q01DX001 (ip), vehicle: saline 100 % of control

O=[As](O)(c1ccccc1)C1CCCCC1O (stereo not given)
inactive: dose: 25.0 mg/kg/injection, schedule: Q01DX001 (ip), vehicle: saline with Tween-80 98 % of control

C(=Nc1cccc2ccccc12)c1ccc2c(c1)OCO2
inactive: dose: 100.0 mg/kg/injection, schedule: Q01DX001 (ip), vehicle: Klucel (hydroxypropylcellulose) (HPC) 98 % of control | dose: 100.0 mg/kg/injection, schedule: Q01DX009 (ip), vehicle: Klucel (hydroxypropylcellulose) (HPC) 91 % of control | dose: 200.0 mg/kg/injection, schedule: Q01DX001 (ip), vehicle: Klucel (hydroxypropylcellulose) (HPC) 93 % of control | dose: 200.0 mg/kg/injection, schedule: Q01DX009 (ip), vehicle: Klucel (hydroxypropylcellulose) (HPC) 96 % of control | dose: 400.0 mg/kg/injection, schedule: Q01DX001 (ip), vehicle: Klucel (hydroxypropylcellulose) (HPC) 96 % of control | dose: 400.0 mg/kg/injection, schedule: Q01DX009 (ip), vehicle: Klucel (hydroxypropylcellulose) (HPC) 96 % of control

Source: PubChem BioAssay AID256 (DTP/NCI, 2004)
